Experiments:
[1] = tested on: human acute myeloid leukemia MV-4-11 cell; experiment: Cytotoxic action on MV-4-11 cells (WST-8, 96 hr); assay type: cell-based; settings: MV4-11, MV-4-11, 96 hr
Protocol: (§1) The cytotoxic action of the compound of the present invention against human cancer cells was evaluated in vitro. In this experiment, (+)-JQ1 (Nature volume 468, pages 1067-1073 (23 Dec. 2010)) known to have an inhibitory activity on the binding of BRD4 protein and a ligand therefor was used as a positive control drug. Respective cells were suspended in 10% FBS/RPMI1640, seeded in a 96 well plate and cultured at 5% CO2, 37° C. overnight. A test compound dissolved in DMSO was diluted with 10% FBS/RPMI1640 and added and the cells were further cultured for 96 hr. After culturing, the viable cell number was measured using a cell number measurement WST-8 kit (Kishida Chemical Co., Ltd.). As a control, the measurement was performed under conditions free of the test compound. The cytotoxic activity of the compound of the present invention against human prostate cancer LNCaP cells is shown in IC50 value in Table 1. The IC50 value is a concentration of the compound showing 50% cell survival rate when the cell survival rate thereof under compound untreated condition is 100%. It was calculated from the straight line connecting the cell survival rate at two points enclosing the 50% cell survival rate and the compound concentration. […]

[2] = tested on: human chronic myeloid leukemia K562 cell; experiment: Cytotoxic action on K562 cells (WST-8, 96 hr); assay type: cell-based; settings: K562, 96 hr
Protocol: as §1

[3] = tested on: human T-cell leukemia Jurkat cells; experiment: Cytotoxic action on Jurkat cells (WST-8, 96 hr); assay type: cell-based
Protocol: as §1

[4] = tested on: human castration-resistant prostate cancer PC-3 cell; experiment: Cytotoxic action on PC-3 cells (WST-8, 96 hr); assay type: cell-based; settings: PC-3, 96 hr
Protocol: as §1

[5] = tested on: human ovarian cancer A2780 cell; experiment: Cytotoxic action on A2780 cells (WST-8, 96 hr); assay type: cell-based; settings: A2780, 96 hr
Protocol: as §1

[6] = tested on: human cisplatin-resistant ovarian cancer SK-OV-03 cell; experiment: Cytotoxic action on SK-OV-03 cells (WST-8, 96 hr); assay type: cell-based; settings: SK-OV-03, 96 hr
Protocol: as §1

[7] = tested on: human bladder cancer 5637 cell; experiment: Cytotoxic action on 5637 cells (WST-8, 96 hr); assay type: cell-based; settings: 5637, 96 hr
Protocol: as §1

[8] = tested on: human breast cancer ZR-75-1 cell; experiment: Cytotoxic action on ZR-75-1 cells (WST-8, 96 hr); assay type: cell-based; settings: ZR-75-1, 96 hr
Protocol: as §1

[9] = tested on: human triple negative breast cancer MDA-MB-231 cell; experiment: Cytotoxic action on MDA-MB-231 cells (WST-8, 96 hr); assay type: cell-based; settings: MDA-MB-231, 96 hr
Protocol: as §1

[10] = tested on: human uterine sarcoma MES-SA cell; experiment: Cytotoxic action on MES-SA cells (WST-8, 96 hr); assay type: cell-based
Protocol: as §1

[11] = tested on: human stomach cancer SNU-16 cell; experiment: Cytotoxic action on SNU-16 cells (WST-8, 96 hr); assay type: cell-based; settings: SNU-16, 96 hr
Protocol: as §1

[12] = tested on: human pancreatic cancer BxPC-3 cell; experiment: Cytotoxic action on BxPC-3 cells (WST-8, 96 hr); assay type: cell-based; settings: BxPC-3, 96 hr
Protocol: as §1

[13] = tested on: human liver cancer HLF cell; experiment: Cytotoxic action on HLF cells (WST-8, 96 hr); assay type: cell-based
Protocol: as §1

[14] = tested on: human renal cell cancer 786-O cell; experiment: Cytotoxic action on 786-O cells (WST-8, 96 hr); assay type: cell-based; settings: 786-O (printed 786-0)
Protocol: as §1

[15] = tested on: human fibrosarcoma HT1080 cell; experiment: Cytotoxic action on HT1080 cells (WST-8, 96 hr); assay type: cell-based; settings: HT-1080, HT1080, 96 hr
Protocol: as §1

BRD4 protein = BRD4 protein (Homo sapiens (Human), UniProt O60885); experiment: Inhibitory action on binding of BRD4 protein and acetylated histone H4 (TR-FRET); settings: BRD4-1 (GST) and acetylated histone H4 peptide, 3 hr
Protocol: The inhibitory action of the compound of the present invention on the binding of BRD4 protein and a ligand thereof (acetylated histone H4) was evaluated by the time-resolved fluorescence resonance energy transfer (TR-FRET) method using EPIgeneous™ Binding Domain Kit A (Cisbio), BRD4-1 (GST) (Reaction Biology Corp) and [Lys(Ac)5/8/12/16]-Histone H4(1-21)-GGK (Biotin) (Eurogentec). In this experiment, (+)-JQ1 (Nature volume 468, pages 1067-1073 (23 Dec. 2010)) known to have an inhibitory activity on the binding of BRD4 protein and acetylated histone H4 therefor was used as a positive control drug. A test compound dissolved in DMSO was diluted with attached Diluent Buffer, added to a 384 well white plate, and BRD4-1 (GST) and [Lys(Ac)5/8/12/16]-Histone H4(1-21)-GGK (Biotin) were further added. Thereafter, Streptavidin-d2 conjugate and Anti-GST-Eu^3+ Cryptate Conjugate were added and the cells were incubated at room temperature for 3 hr. The binding amount of the BRD4 protein and acetylated histone H4 was measured as the fluorescence intensity (excitation: 314 nm/emission: 620 nm and excitation: 314 nm/emission: 665 nm). […] It was calculated from the straight line connecting the degradation rate at two points enclosing the 50% fluorescence intensity and the compound concentration.

`COC(=O)C[C@@H]1N=C(c2ccc(-c3ccc(C(=O)NCc4ccc(S(=O)(=O)Nc5ccc(C)c6c(C#N)c[nH]c56)cc4)cc3)cc2)c2c(sc(C)c2C)-n2c(C)nnc21` [Example 1, methyl [(6S)-4-{4′-[({4-[(3-cyano-4-methyl-1H-indol-7-yl)sulfamoyl]phenyl}methyl)carbamoyl][1,1′-biphenyl]-4-yl}-2,3,9-trimethyl-6H-thieno[3,2-f][1,2,4]triazolo[4,3-a][1,4]diazepin-6-yl]acetate] showed an IC50 [1] of 0.16 nM, an IC50 [2] of 1.7 nM and an IC50 [3] of 1.3 nM. It also gave an IC50 [4] of 0.88 nM, an IC50 [5] of 0.19 nM and an IC50 [6] of 41 nM. The IC50 [7] was 1.9 nM, the IC50 [8] was 27 nM and the IC50 [9] was 4 nM. It also gave an IC50 [10] of 1.8 nM, an IC50 [11] of 6.4 nM and an IC50 [12] of 3.3 nM. It also gave an IC50 [13] of 2.9 nM, an IC50 [14] of 660 nM and an IC50 [15] of 13 nM. The IC50 (BRD4 protein) was 29 nM.
